Consider 20 compounds from patent publication US20260256807A1, “SUBSTITUTED PYRAZOLES AND IMIDAZOLES AS OREXIN RECEPTOR ANTAGONISTS COMPOSITION, METHODS FOR TREATING NEUROLOGICAL AND PSYCHOLOGICAL DISORDERS” (HAGER BIOSCIENCES, LLC, priority 2022, published 2026).

Assay [1] deals with T1, human orexin-1 receptor (Homo sapiens, UniProt O43613).
T1 construct: expressed in transfected cells; host or cells: CHO cells (G418 selection)
T1 sequence (O43613 1-425): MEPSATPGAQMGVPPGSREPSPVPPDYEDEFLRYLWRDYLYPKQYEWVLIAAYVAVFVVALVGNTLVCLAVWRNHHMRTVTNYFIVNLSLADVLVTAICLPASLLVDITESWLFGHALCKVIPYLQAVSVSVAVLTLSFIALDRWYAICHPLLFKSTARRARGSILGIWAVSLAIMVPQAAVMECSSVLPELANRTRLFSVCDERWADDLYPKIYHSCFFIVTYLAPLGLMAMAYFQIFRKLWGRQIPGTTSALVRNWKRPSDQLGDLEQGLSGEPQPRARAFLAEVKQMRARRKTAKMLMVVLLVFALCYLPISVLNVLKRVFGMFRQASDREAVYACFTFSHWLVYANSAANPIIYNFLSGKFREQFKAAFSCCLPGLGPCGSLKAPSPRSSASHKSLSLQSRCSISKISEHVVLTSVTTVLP
The experiment in a line: Intracellular calcium (FLIPR) antagonist assay, CHO cells expressing human orexin-1 receptor, 3 nM orexin-A. The conditions noted are these: CHO, 1 uM compound, orexin-A 3 nM, read-out: OXIR % Inh. @ 1 uM. It counts as cell-based. As for the experimental part:
(§1) Antagonistic activities on both orexin receptors (i.e., to identify Orexin Receptor Antagonists) have been measured for each example compound using the in vitro assays (intracellular calcium measurements) as described herein. Other assays may also be used to identify Orexin Receptor Antagonists as would be understood by those of ordinary skill in the art. Chinese hamster ovary (CHO) cells expressing the human orexin-1 receptor and the human orexin-2 receptor, respectively, are grown in culture medium (Ham F-12 with L-Glutamine) containing 300 μg/mL G418, 100 U/mL penicillin, 100 μg/mL streptomycin and 10% heat inactivated fetal calf serum (FCS). The cells are seeded at 20′000 cells/well into 384-well black clear bottom sterile plates (Greiner). The seeded plates are incubated overnight at 37° C. in 5% CO2. Human orexin-A as an agonist is prepared as 1 mM stock solution in MeOH: water (1:1), diluted in HBSS containing 0.1% bovine serum albumin (BSA), NaHC03: 0.375 g/L and 20 mM HEPES for use in the assay at a final concentration of 3 nM.
(§2) Antagonists were prepared as 10 mM stock solution in DMSO, then diluted in 384-well plates using DMSO followed by a transfer of the dilutions into in HBSS containing 0.1% bovine serum albumin (BSA), NaHC03: 0.375 g/L and 20 mM HEPES. On the day of the assay, 50 μL of staining buffer (HBSS containing 1% FCS, 20 mM HEPES, NaHC03: 0.375 g/L, 5 mM probenecid (Sigma) and 3 μM of the fluorescent calcium indicator fluro-4 AM (1 mM stock solution in DMSO, containing 10% pluronic) is added to each well. The 384-well cell-plates are incubated for 50 min at 37° C. in 5% C02 followed by equilibration at RT for 30 min before measurement. Within the Fluorescent Imaging Plate Reader (FLIPR Tetra, Molecular Devices), potential Orexin Receptor Antagonists were added to the plate in a volume of 10 μl/well, incubated for 120 min and finally 10 μL/well of agonist is added. Fluorescence was measured for each well at 1 second intervals, and the height of each fluorescence peak compared to the height of the fluorescence peak induced by 3 nM orexin-A with vehicle in place of antagonist. The IC50 value (the concentration of compound needed to inhibit 50% of the agonistic response) was determined and normalized using the obtained IC50 value of an on-plate reference compound. Optimized conditions were achieved by adjustment of pipetting speed and cell splitting regime. The calculated IC50 values fluctuate depending on the daily cellular assay performance, as is known to those skilled in the art. In the case where IC50 values have been determined several times for the same compound, the geometric mean has been given.

Assay [2] addresses T2, human orexin-2 receptor (Homo sapiens, UniProt O43614).
T2 construct: expressed in transfected cells; host or cells: CHO cells (G418 selection)
T2 sequence (O43614 1-444): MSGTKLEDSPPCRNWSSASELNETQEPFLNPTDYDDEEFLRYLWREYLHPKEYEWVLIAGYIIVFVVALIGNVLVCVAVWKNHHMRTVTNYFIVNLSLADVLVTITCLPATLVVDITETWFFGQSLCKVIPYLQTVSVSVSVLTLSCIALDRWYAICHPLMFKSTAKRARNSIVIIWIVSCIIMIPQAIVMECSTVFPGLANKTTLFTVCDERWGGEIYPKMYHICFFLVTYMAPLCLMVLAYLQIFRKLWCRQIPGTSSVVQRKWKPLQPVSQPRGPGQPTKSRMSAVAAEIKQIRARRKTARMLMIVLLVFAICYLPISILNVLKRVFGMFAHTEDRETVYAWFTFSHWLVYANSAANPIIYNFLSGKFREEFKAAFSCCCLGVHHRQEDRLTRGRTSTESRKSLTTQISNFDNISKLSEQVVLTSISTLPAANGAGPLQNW
The experiment in a line: Intracellular calcium (FLIPR) antagonist assay, CHO cells expressing human orexin-2 receptor, 3 nM orexin-A. Type of assay: cell-based. The conditions noted are these: CHO, 1 uM compound, orexin-A 3 nM, read-out: OX2R % Inh. @ 1uM. Here is the method:
as §1, §2

As for `O=C(c1c(-c2ccccc2)nn2ccccc12)N1CCCN(c2nc3cc(Cl)ccc3o2)CC1` [Example 1], the results for the inhibition at 1 µM in assay [1] and in assay [2] were 98.7% and 94.9%, respectively.
Take `O=C(c1c(-c2ccccc2)nn2c1COCC2)N1CCCN(c2nc3cc(Cl)ccc3o2)CC1` [Example 2]: the inhibition at 1 µM in assay [1] came out at 64.2%; in assay [2] it was 43.4%.
Regarding `O=C(c1c(-c2ccccc2)nc2ccccn12)N1CCCN(c2nc3cc(Cl)ccc3o2)CC1` [Example 3], the inhibition at 1 µM is 94% in assay [1] and 71.8% in assay [2].
Regarding `C[C@@H]1CCN(c2nc3cc(Cl)ccc3o2)CCN1C(=O)c1c(-c2ccccc2)nc2ccccn12` [Example 5], the inhibition at 1 µM came out at 98.5% in assay [1] and 94.5% in assay [2].
Regarding `C[C@@H]1CCN(c2nc3cc(Cl)ccc3o2)CCN1C(=O)c1c(-c2ccccc2)nc2n1CCCC2` [Example 6], the inhibition at 1 µM in assay [1] came to 62.5%; in assay [2], 33.4%.
On to `C[C@@H]1CCN(c2nc3cc(Cl)ccc3o2)CCN1C(=O)c1c(-c2ccccc2)nn2c1COCC2` [Example 7], for which the inhibition at 1 µM stood at 91% in assay [1] and 54.5% in assay [2].
For the compound `C[C@@H]1CCN(c2nc3cc(Cl)ccc3o2)CCN1C(=O)c1nn2ccccc2c1-c1ccccc1` [Example 8], the values for the inhibition at 1 µM in assay [1] and in assay [2] were 98% and 82.7%, respectively.
The matching figures for `C[C@@H]1CCN(c2nc3cc(Cl)ccc3o2)CCN1C(=O)c1nc2n(c1-c1ccccc1)CCCC2` [Example 9]: 49.6% and 12.2%.
`C[C@@H]1CCN(c2nc3cc(Cl)ccc3o2)CCN1C(=O)c1c(-c2ccccc2)nn2c1CCCC2` [Example 10]: the inhibition at 1 µM in assay [1] was 85.9%; in assay [2] it was 55.1%.
As for `COc1ccc(N2CC[C@@H](C)N(C(=O)c3c(-c4ccccc4)nn4c3COCC4)CC2)nn1` [Example 11], the inhibition at 1 µM in assay [1] worked out at 12.2%; in assay [2] it was 21.5%.
As for `COc1ccc(N2CC[C@@H](C)N(C(=O)c3c(-c4ccccc4)nn4c3COCC4)CC2)nc1` [Example 12], the inhibition at 1 µM amounted to 14.7% in assay [1] and 25% in assay [2].
As for `COc1ccc(N2CC[C@@H](C)N(C(=O)c3c(-c4ccccc4)nn4ccccc34)CC2)nn1` [Example 13], the inhibition at 1 µM is 45.1% in assay [1] and 38.6% in assay [2].
As for `COc1ccc(N2CC[C@@H](C)N(C(=O)c3c(-c4ccccc4)nn4ccccc34)CC2)nc1` [Example 14], the inhibition at 1 µM in assay [1] is 91.6%; in assay [2] it was 57.6%.
In the case of `COc1ccc(N2CC[C@@H](C)N(C(=O)c3c(-c4ccccc4)nn4ccccc34)CC2)cn1` [Example 15], the inhibition at 1 µM came to 38.7% in assay [1] and 37.1% in assay [2].
For `COc1ccc(N2CC[C@@H](C)N(C(=O)c3c(-c4ccccc4)nn4c3COCC4)CC2)cn1` [Example 16], the inhibition at 1 µM in assay [1] is -21.1%; in assay [2], 3.3%.
In the case of `C[C@@H]1CCN(c2ccc(C(F)(F)F)cn2)CCN1C(=O)c1c(-c2ccccc2)nn2ccccc12` [Example 17], the inhibition at 1 µM is 96.3% in assay [1] and 66.7% in assay [2].
In the case of `C[C@@H]1CCN(c2ccc(C(F)(F)F)cn2)CCN1C(=O)c1c(-c2ccccc2)nn2c1COCC2` [Example 18], the inhibition at 1 µM in assay [1] was determined as 82.5%; in assay [2] it was 35.5%.
Consider `C[C@@H]1CCN(c2ccc(C(F)(F)F)cn2)CCN1C(=O)c1c(-c2ccccc2)nc2ccccn12` [Example 19], for which the inhibition at 1 µM in assay [1] was found to be 94.5%; in assay [2] it was 48.2%.
As to `COc1ccc(N2CC[C@@H](C)N(C(=O)c3c(-c4ccccc4)nc4ccccn34)CC2)nc1` [Example 20], the inhibition at 1 µM in assay [1] stood at 62.1%; in assay [2], 32.2%.
Turning to `COc1ccc(N2CC[C@@H](C)N(C(=O)c3c(-c4ccccc4)nc4ccccn34)CC2)nn1` [Example 21], the inhibition at 1 µM in assay [1] was found to be 20.9%; in assay [2], 23.7%.
